# From publication PMC6022639, “A missense allele of KARRIKIN-INSENSITIVE2 impairs ligand-binding and downstream signaling in Arabidopsis thaliana” (Journal of Experimental Botany, 2018)
# Tests used:
# [1] = target: T1, KARRIKIN INSENSITIVE2 (KAI2) (Arabidopsis thaliana, UniProt Q9SZU7); test: ITC ([…] °C); supported by CPM thermal shift; type: binding
# T1 construct: full-length, recombinant from E. coli, His tag removed
# T1 sequence (Q9SZU7 1-270): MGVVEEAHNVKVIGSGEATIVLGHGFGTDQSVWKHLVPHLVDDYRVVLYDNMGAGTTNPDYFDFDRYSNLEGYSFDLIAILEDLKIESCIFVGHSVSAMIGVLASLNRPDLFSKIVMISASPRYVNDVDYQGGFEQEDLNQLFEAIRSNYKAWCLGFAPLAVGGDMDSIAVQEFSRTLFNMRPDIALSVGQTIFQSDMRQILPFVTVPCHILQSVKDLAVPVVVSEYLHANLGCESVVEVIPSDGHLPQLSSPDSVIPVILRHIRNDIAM
# [2] = target: T2, KAI2^ply2 (KAI2^A219V) (Arabidopsis thaliana, UniProt Q9SZU7, A219V); test: ITC ([…] °C); strongly impaired binding, only marginal change in CPM assay
# T2 construct: full-length, recombinant from E. coli, His tag removed
# T2 sequence (Q9SZU7 whole entry A219V): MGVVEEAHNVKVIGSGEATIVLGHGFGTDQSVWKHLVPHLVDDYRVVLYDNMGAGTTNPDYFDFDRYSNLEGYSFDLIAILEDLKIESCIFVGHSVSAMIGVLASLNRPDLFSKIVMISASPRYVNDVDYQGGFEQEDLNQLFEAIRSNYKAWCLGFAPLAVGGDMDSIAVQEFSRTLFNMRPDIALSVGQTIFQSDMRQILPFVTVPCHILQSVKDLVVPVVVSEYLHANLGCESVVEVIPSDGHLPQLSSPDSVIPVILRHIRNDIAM
smiles,measurement,setting,value
"Cc1c2ccocc-2oc1=O [KAR1, 3-methyl-2H-furo[2,3-c]pyran-2-one]",Kd,[1],147 µM
same,Kd,[2],2860 µM
